From patent US7217686B1, “DNA sequence encoding oncofetal ferritin protein” (Gardino Investment N.V., priority 1999, dated 2007) come the findings set out here.

Assay [1] concerns zymosan induced arthritis (ZIA). Description: Zymosan induced arthritis (ZIA) in mice. It is filed as in vivo. The following applies: for Knee swelling Mean +/− SD (n = 10): C48 30 μg/per mouse daily i.p. from day 1 up to 10. The procedure: Animals: Female ICR mice were obtained from our institution's breeding facilities and were fed a standard diet and tap water ad libidum. Induction of zymosan-induced arthritis: A homogeneous suspension of 25 mg zymosan A (Saccharomyces cerevisiae), dissolves in 1 ml endotoxin-free saline, was obtained by boiling twice followed by sonic emulsification. Arthritis was induced by intrarticular injection of 0.5 mgr/20 l zymosan into each right and left knees. Assessment of ZIA: Mice were evaluated at 14 days post zymosan injections: Swelling was quantitated by measuring the thickness of the knees with a caliper, at 14th day post ZIA and compared to the thickness prior to ZIA. Histologic processing and analysis of knee joints: Knee joints were dissected, fixed, decalcified, dehydrated, and embedded in paraffin. Standard frontal section of 7 μm were prepared and stained with eosin-hematoxilin. Disease severity was assessed by calculation of arthritic index as follows: • Semiquantitative assessment of pathologic findings was performed using a grading system, consisting of five grades. Grade 0: normal synovia; grade 1: 1–5 cellular infiltrates in the microscopic field; grade 2: 6–20 cellular infiltrates; grade 3: 21–50 infiltrates; grade 4: more than […]. • Lymphocytic nodules: grade 1: 1–3 nodules per sectio; grade 2: 4–10 nodules; grade 3: 11–20 nodules; grade 4: more than 20 nodules. • Histiocytes grading: grade 1: 1–10 cell; grade 2: 11–20 cells; grade 3: 21–30 cells; grade 4: more than 30 cells. • Synovial thickness: grade 0: presence of 1 layer of synovial cells; grade 2: 2–3 layers; grade 3: 4–6 layers; grade 4: more than 6 layers. The presence of pannus was considered evidence of severe synovitis. Treatment with C48 (OFF1): Three groups of 10 mice each, were treated by daily intraperitoneal injections of either PBS (control group) or C48 (30 μg/per mouse). Statistical analysis: The significance of comparisons between means was assessed by Student's t-test. Effect of C48 administration on ZIA: Two group of mice (n=10 each) were treated by daily i.p. injections from day 1 up to 10 (10 days), or from day 3 to 10 (7 days) (C48 delayed) following intraarticular zymosan injections. Groups of ZIA mice (n=10) which received daily injections of PBS served as control.

Assay [2] deals with activated human lymphocytes in MLR. Description: Cytokine secretion by activated human lymphocytes in mixed lymphocyte culture (ELISA). Type of assay: cell-based. The following applies: 24 h culture supernatant. The procedure: In-vitro activation of human lymphocytes without and with C48/OFF1 treatment was carried out in a mixed lymphocyte culture (MLC). Human peripheral blood lymphocytes ([…]) (responder cells) were incubated with non-related Mitomycin C (40 μgr/ml) treated lymphocytes (2×10^6/ml) in RPMI-1640 medium containing 10% Fetal Calf serum and antibiotics. The cultures were incubated for 24 h in a humidified incubator at 37° C. with 5% CO2. Supernatants were collected and the concentration of the secreted cytokines were measured using an ELISA assay kit. The level of IL-2 R, and interferon (Th1 cytokines) and IL-6 and IL-10 (TH2 cytokines) were determined.

In assay [3] the test system is human bone marrow progenitor CFU-GM. The assay is described as follows: CFU-GM colony assay with normal human bone marrow mononuclear cells. It is filed as cell-based. The following applies: Cond. Med. 5% vol/vol, p43 (PLF) 1 μg/ml, GM-CSF 15 ng/ml; for number of CFU-GM colonies: scored after 14 days. As to the method:
Bone marrow samples from 11 healthy volunteer donors were processed by density gradient separation using […] (Sigma diagnostics, St. Louis, Mo., USA) to obtain a purified population of mononuclear cells. Colony assays were performed in a plating medium containing final concentrations of 0.92% methyl cellulose (M-281 powder, 4,000 centipoise, Fisher Scientific Co., Fair Lawn, N.J., USA), rehydrated in Iscove's modified Dulbecco's medium containing 36 mM sodium bicarbonate (Gibco, Grand Island, N.Y., USA), 30% fetal bovine serum (FBS) (HyClone, Logan, Utah, USA) 0.292 mg/ml glutamine, 100 U/ml penicillin and 0.01 mg/ml streptomycin (Biological Industries, Beit Haemek, Israel). Growth factors used were […] GM-CSF Leucomax (Sandoz Pharma) and 5% vol/vol human phytohemagglutinin-M (Difco Laboratories, Detroit, Mich., USA)-induced conditioned medium (Cond. Med.) p43 (PLF) was added at concentration of 1 μg/mL and in neutralization experiments, p43 (PLF) was preincubated with 10× excess of CM-H-9 MoAb at 37° C. for 30 min and the complex added to the assay as above. The colony assay medium contained 10^5 mononuclear cells/ml and each 1 ml was plated into triplicate wells (333 μl/well) of a 24 well tissue culture plate (Greiner, Germany). Water was added to spaces between cells to maximize humidity during incubation of the cultures. The cultures were incubated at 37° C. in 5% CO2 and 55% relative humidity. Plates were scored after 14 days for colonies containing more than 50 cells.

Several values for one entry are separate records, joined by “and”; a condition that tells them apart may be missing. Identical values can stand only once.

Take “C48/OFF 1: deletion construct encoding the unique C-terminal 48 aa of OFF1, expressed in E. coli as GST fusion protein (FPSPISPSPSCWHHYTTNRPQPQHHLLRPRRRKRPHSIPTPILIFRSP; left off: a dimerising Fc or GST)”: the “Knee swelling Mean +/− SD (n = 10)” value in assay [1] (14 days post zymosan) came out at 0.24 mm. In addition, in assay [1] (14 days post zymosan, listed as C48), the “Knee swelling Mean +/− SD (n = 10)” value is 0.24 +/− 0.56 mm. Moreover, the “Knee swelling Mean +/− SD (n = 10), C48 delayed” value in assay [1] (C48 30 μg/per mouse daily i.p. from day 3 to 10, 14 days post zymosan, listed as C48) was 0.33 mm and 0.33 +/− 0.57 mm. Also, the “Arthritis Score Mean +/− SD (n = 10)” value in assay [1] (C48 daily i.p. from day 1 up to 10, mean grades of pathological findings) was 1 +/− 0.83. Besides, the “Arthritis Score Mean +/− SD (n = 10), C48 delayed” value in assay [1] (C48 daily i.p. from day 3 to 10, mean grades of pathological findings) is 0.9 +/− 0.83. The severity of arthritis result in assay [1] (C48 from day 1 to 10 or from day 3 to 10, compared with PBS) is listed as “very mild”. Also, in assay [2], the “IL-6 secreted in MLR” value is 170,779 +/− 58,800 u/mL, the “IL-10 secreted in MLR” value is recorded as 1125 +/− 332 u/mL, the “sIL-2R secreted in MLR” value came out at 50 u/mL and the “γ Interferon secreted in MLR” value was 46 u/mL.

For “GM-CSF: GM-CSF Leucomax (Sandoz Pharma), growth factor used for comparison [reference compound]”, in assay [3] (11 donors), the “MEDIAN number of CFU-GM colonies” value amounted to 144. Further, in assay [3] (11 donors), the “RANGE of number of CFU-GM colonies” value is listed as 50–884. For the same substance, the “mean number of CFU-GM colonies (AVG.)” value in assay [3] (11 donors) was 276+/−257 and 276.2. The “number of CFU-GM colonies” value is 144 in assay [3] (Bone Marrow No. 1); 396 in assay [3] (Bone Marrow No. 2); 114 in assay [3] (Bone Marrow No. 3); 66 in assay [3] (Bone Marrow No. 4); 136 in assay [3] (Bone Marrow No. 5); 250 in assay [3] (Bone Marrow No. 6). Also, the “number of CFU-GM colonies” value in assay [3] (Bone Marrow No. 7) is 50; in assay [3] (Bone Marrow No. 8), 74; in assay [3] (Bone Marrow No. 9) it was 520; in assay [3] (Bone Marrow No. 10) it was 884; in assay [3] (Bone Marrow No. 11), 405.
